Experimental data published in PubChem BioAssay (NCI).
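Growth conditions: 96-well plates. Treatment: test compound, 48 hours, 5 concentrations. Analysis: linear interpolation between bracketing concentrations; unreached endpoints set to highest concentration. Abbreviation: GI50, concentration required for 50% inhibition of growth. TGI is the concentration that stops growth completely.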

Experiments:
Assay in all cases: NCI tumour cell line growth inhibition, 48 h
CAKI-1 renal = system: CAKI-1 renal
HCT-15 colon = system: HCT-15 colon
KM12 colon = system: KM12 colon
OVCAR-4 ovarian = system: OVCAR-4 ovarian
SF-295 CNS = system: SF-295 CNS
SN12C renal = system: SN12C renal
SNB-75 CNS = system: SNB-75 CNS
SW-620 colon = system: SW-620 colon
UO-31 renal = system: UO-31 renal
DU-145 prostate = system: DU-145 prostate

Row | Structure (SMILES) | TGI (CAKI-1 renal) [µM] | TGI (HCT-15 colon) [µM] | TGI (KM12 colon) [µM] | TGI (OVCAR-4 ovarian) [µM] | TGI (SF-295 CNS) [µM] | TGI (SN12C renal) [µM] | TGI (SNB-75 CNS) [µM] | TGI (SW-620 colon) [µM] | TGI (UO-31 renal) [µM] | GI50 (CAKI-1 renal) [µM] | GI50 (DU-145 prostate) [µM] | TGI (DU-145 prostate) [µM] | GI50 (HCT-15 colon) [µM] | GI50 (KM12 colon) [µM] | GI50 (OVCAR-4 ovarian) [µM] | GI50 (SF-295 CNS) [µM] | GI50 (SN12C renal) [µM] | GI50 (SW-620 colon) [µM] | GI50 (UO-31 renal) [µM] | GI50 (SNB-75 CNS) [µM]
1 | O=C1OCC(C(=O)c2cccc(O)c2)C1=O (stereo not drawn) | > 100 | > 100 | > 100 | > 100 | > 100 | > 100 | > 100 | > 100 | > 100 |  |  |  |  |  |  |  |  |  |  | 
2 | COc1cc2ccn3c4cc(OC)c(OC)cc4cc3c2cc1OC | > 100 |  | > 100 | > 100 | > 100 | > 100 | > 100 | > 100 | > 100 |  |  |  |  |  |  |  |  |  |  | 
3 | Cn1c(=O)c2c3oc(=O)cc(O)c3c(=O)n3c4ccccc4n(c1=O)c23 | > 100 | > 100 | > 100 | > 100 | > 100 | > 100 | 87.8 | > 100 | > 100 |  |  |  |  |  |  |  |  |  |  | 
4 | O=C(CCCCCCCCC(=O)OCC1OC(n2cnc3c(=O)[nH]cnc32)C(O)C1O)OCC1OC(n2cnc3c(=O)[nH]cnc32)C(O)C1O (stereo not drawn) | > 100 | > 100 | > 100 | > 100 | > 100 | > 100 | > 100 | > 100 | > 100 |  |  |  |  |  |  |  |  |  |  | 
5 | CC(=O)NC1C(OCc2ccccc2)OC(COC(=O)CCCCCCCCCCNC(=O)c2cccc3c(=O)c4ccccc4[nH]c23)C(O)C1OC(C)C(=O)NC(C)C(=O)NC(CCC(N)=O)C(N)=O (stereo not drawn) | > 100 | > 100 | > 100 | > 100 | > 100 | > 100 | > 100 | > 100 | > 100 |  |  |  |  |  |  |  |  |  |  | 
6 | N#Cc1c2c(c(N=[N+]=[N-])n3c1nc1ccccc13)CCCC2 | 6.39 | 4.38 | 5.53 | 5.33 | 4.94 | 4.22 | 4.04 | 4.31 | 4.55 |  |  |  |  |  |  |  |  |  |  | 
7 | O=c1oc(-c2ccc(O)c(O)c2)cc2cc(O)cc(O)c12 | > 100 | > 100 | > 100 | > 100 | > 100 | > 100 |  | > 100 | > 100 | 33.6 | 32.4 | > 100 | 57.1 | 28.6 | 76.6 | 43.7 | 43 | 35.2 | 18.5 | 
8 | COC(=O)/C(=N\NC(=O)c1ccccc1O)C(C#N)c1ccc(Cl)cc1 (stereo not drawn) |  | > 100 | > 100 | > 100 | > 100 | > 100 |  | > 100 | 37.3 |  |  |  |  |  |  |  |  |  |  | 
9 | S=C(Nc1ccccc1)Nc1[nH]c(=S)sc1-c1nc2ccccc2[nH]1 | > 100 | > 100 | > 100 | 81.2 | > 100 | > 100 | 78.5 | > 100 | > 100 |  |  |  |  |  |  |  |  |  |  | 
10 | COC(=O)/C(C#N)=C1\N=NNN1CCCN1CCOCC1 | > 100 | > 100 | > 100 |  | > 100 | > 100 | > 100 | > 100 | > 100 |  |  |  |  |  |  |  |  |  |  | 
11 | c1ccc(SCCCC(Sc2ccccc2)Sc2ccccc2)cc1 | > 100 | > 100 | > 100 | > 100 | > 100 | > 100 | > 100 | > 100 | > 100 |  |  |  |  |  |  |  |  |  |  | 
12 | COc1cc(C2C3=C(COC3=O)N(CCO)c3cc4c(cc32)CCC4)cc(OC)c1O (stereo not drawn) | > 26.3 | > 32.5 | 5.52 | > 32.5 | 0.354 | > 32.5 |  | > 32.5 | > 32.5 | 0.508 | 0.136 | 2.31 | 1.09 | 0.121 | 0.278 | 0.0973 | 0.499 | 0.121 | 0.426 | 
13 | CC(CS(=O)(=O)Cc1ccccc1)C(N)=O (stereo not drawn) | > 100 | > 100 | > 100 | > 100 | > 100 | > 100 |  | > 100 | > 100 |  |  | > 100 |  |  |  |  |  |  |  | 
14 | CC1=CC2=C(C)C3(CC3)[C@@](C)(O)C(=O)C2=C1 | 0.744 | 0.454 | > 0.918 | 0.356 | 0.571 | 0.557 | 0.425 | > 1 | 0.337 |  |  |  |  |  |  |  |  |  |  | 
15 | O=c1c2ccccc2nc(-c2ccccc2)n1NCC1(O)OCC(O)C(O)C1O (stereo not drawn) | > 100 | > 100 | > 100 | > 100 | > 100 | > 100 | > 100 | > 100 | > 100 |  |  |  |  |  |  |  |  |  |  | 
16 | CN1CC2(CCCCC2)C(O)C12C=CCCC2 (stereo not drawn) | > 100 | > 100 | > 100 |  | > 100 | > 100 | > 100 | > 100 | > 100 |  |  |  |  |  |  |  |  |  |  | 
17 | CCOC(=O)c1cnc2[nH]c(=O)c3ccccc3n2c1=O | > 100 | > 100 | > 100 | > 100 | > 100 | > 100 | > 100 | > 100 | > 100 |  |  |  |  |  |  |  |  |  |  | 
18 | Cc1nnc2n1N=C(CC(=O)c1ccc(O)cc1O)CN2N | > 100 | 29.7 | > 100 | > 100 | > 100 | > 100 |  | 31 | > 100 |  |  |  |  |  |  |  |  |  |  | 
19 | CC(C)OP(=O)(CP(=O)(OC(C)C)OC(C)C)OC(C)C.[CH3][Sn]([Br])([Br])[Br] | > 100 | > 100 | > 100 |  | > 100 | > 100 | > 100 | > 100 | > 100 | > 100 |  |  | > 100 | > 100 |  | > 100 | > 100 | > 100 | > 100 | > 100
20 | O=C(O)c1cc(Cl)cc(NC(=O)C(Cl)Cl)c1Cl | > 100 | > 100 | > 100 | > 100 | > 100 | > 100 | > 100 | > 100 | > 100 |  |  |  |  |  |  |  |  |  |  | 
21 | COC(=O)c1c(C)oc2ccc(OC(C)=O)cc12 | > 100 | > 100 | > 100 | > 100 | > 100 | > 100 | > 100 | > 100 | > 100 |  |  |  |  |  |  |  |  |  |  | 
